One assay deals with T1, bradykinin β2 receptor (Cavia porcellus, UniProt O70526).
T1 construct: membrane preparations of the guinea-pig ileum; from tissue; host or cells: guinea-pig ileum membranes
T1 sequence (O70526 1-372): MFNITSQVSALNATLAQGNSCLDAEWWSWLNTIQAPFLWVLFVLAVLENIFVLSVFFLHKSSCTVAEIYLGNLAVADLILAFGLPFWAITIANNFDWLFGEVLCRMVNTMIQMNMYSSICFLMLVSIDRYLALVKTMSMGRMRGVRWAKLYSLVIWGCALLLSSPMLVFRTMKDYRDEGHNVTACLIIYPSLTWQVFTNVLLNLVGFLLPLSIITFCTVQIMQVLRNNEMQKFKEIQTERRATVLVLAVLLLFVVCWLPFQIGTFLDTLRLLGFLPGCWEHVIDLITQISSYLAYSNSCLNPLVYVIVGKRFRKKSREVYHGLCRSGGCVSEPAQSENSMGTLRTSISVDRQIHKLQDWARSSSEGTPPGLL
As to the kind of experiment: Ki on membrane preparations of guinea-pig ileum, 3H-bradykinin competition. In kind it is binding. As to conditions: 3H-bradykinin 0.25 to 0.3 nmol/l, guinea-pig ileum membranes, room temperature, 60 minutes, pH 6.8. Here is the method:
B. Innis et al., Proc. Natl. Acad. Sci. USA, 17 (1981) 2630) according to the following procedure: […] Ligand: ^3 H-BRADYKININ (from NEN Du Pont) Both buffers are adjusted to pH 6.8 using 5 molar NaOH. Guinea-pig ilea are grossly freed from intestinal contents by careful brushing and cleaned in 0.9% strength NaCl solution. The pieces of ilea about 2 cm long are transferred to ice-cold TES buffer (about 1 g/10 ml) and homogenized in an ice bath for about 30 sec. using an Ultraturrax. The homogenate is then filtered through three layers of gauze, and the filtrate is centrifuged at 50,000 g/10 minutes. The supernatant is discarded, and the pellet is rehomogenized in the same volume of TES buffer and centrifuged again at 50,000 g/10 minutes. The pellet is rehomogenized in incubation buffer (about 1 g/5 ml) and frozen at -70° C. in cryotubes in 2 ml portions. The protein concentration of the finished membrane suspension is determined according to LOWRY and should be about 15 μg/100 μl. All incubations are carried out at room temperature for 60 minutes on microtiter plates (96×300 μl) in a 200 μl volume. All mixtures are in incubation buffer. To this end, 50 μl of the radioligand, 50 μl of the preparation to be tested, and 100 μl of the membrane suspension are pipetted into the hollows of the microtiter plate in succession. Nonspecific binding: for each concentration of the radioactive ligand, the nonspecific binding must be determined. […] In this test, HOE 140 (10 μmol/l) is used. […] The reaction is started by the addition of 100 μl of the membrane suspension. Here a fixed quantity of the radioactive ligand (0.25 to 0.3 nmol/l of ^3 H-bradykinin) and various concentrations of the unlabeled agonists or antagonists are employed. 50 μl of the preparations or standard to be tested in the concentrations 10^-5 to 10^-10 mol/l are added to 50 μl in each case of the ^3 H-bradykinin solution, and the reaction is started by addition of 100 μl of membrane suspension. Triplicate determinations also are carried out in this test, and three samples are incubated with 10 μmol/l of HOE 140 to determine the nonspecific binding. The preparations to be tested for competition are completely dissolved in a concentration of 1 mmol/l in dimethyl sulfoxide (DMSO), and then further diluted with DMSO. This solution is then diluted 1:25 with incubation buffer. […] The still moist filters are punched out into mini-scintillation tubes, and these are filled with 3 ml of scintillator. After a soaking time of about 12 hours, the samples are briefly shaken and measured in a beta-counter. […] If a displacement of the radioligand of 50% or more is detectable at the highest concentration, a complete analysis (competition experiment) is carried out using at least 8 concentrations. Assessment is carried out by means of the LIGAND program package (McPherson, Minson & Rodbard, marketed by: Elsevier-BIOSOFT), which carries out the necessary calculations for the determination of IC50 and Ki values. This program moreover carries out graphic presentations of the saturation or displacement curves as well as the SCATCHARD plot, HILL plot, or HOFSTEE plot.

Assay [1] has as its system bradykinin-induced contraction of the guinea-pig ileum. As to the kind of experiment: bradykinin-induced contraction of the guinea-pig ileum. To be noted: isolated guinea-pig ileum, bradykinin 4×10^-8 mol/l, antagonist action time 10 min, 37° C. From the text: In addition, for the determination of the bradykinin-antagonistic action of the compounds of fomula (I), their effect on the bradykinin-induced contraction of the guinea-pig ileum can be measured according to the following protocol:
Guinea-pigs about 300 g in weight (Morioth strain, .male..female.) are killed by a blow to the neck and exsanguinated. The ileum is dissected out in a length of about 20 cm, rinsed with Tyrode solution (Record Syringe), and thus freed from the intestinal contents. It is then divided into sections 1.5 cm long. These are fixed in organ baths of 10 ml capacity, which are filled with Tyrode solution, and connected to extension-measuring strips (isometric contraction measurement). The preload is 1 g. The Tyrode solution is warmed to 37° C. in a water bath and bubbled through with compressed air. After an interval of 30 min, the experiment is begun. After recording the biological zero line, bradykinin in a final concentration of 4×10^-8 mol/l is added per organ bath, and the […] is recorded. Rinsing with Tyrode solution is then carried out for three min., and after a break of 20 min., bradykinin is again added. The maximum of the contraction is achieved (control). Rinse again, break. […] The experiment is recorded on a pen recorder.
Thus, the compounds of Examples 6 and 20, for example, have the following IC50 values determined by the above procedure: […]

One may read the Ki as a measure of affinity in units of concentration, obtained from inhibition or displacement. A lower Ki goes with higher affinity. For `CCNC(=O)NCC(=O)N(C)c1ccc(Cl)c(COc2cccc3ccc(C)nc23)c1C#N` [Example 1, 8-[6-Chloro-2-cyano-3-(N-ethylaminocarbonylglycyl-N-methyl)amino-benzyloxy]-2-methylquinoline], the affinity on bradykinin β2 receptor, expressed as Ki, was 8.3 nM.
The term IC50 denotes the concentration that inhibits the measured activity by half. The low end stands for higher potency, the high end for lower potency. On to `Cc1ccc2cccc(OCc3c(Cl)ccc(N(C)C(=O)CNC(=O)NCCCCN)c3C#N)c2n1` [Example 6, 8-[6-Chloro-2-cyano-3-[N-(4-aminobutylaminocarbonylglycyl-N-methyl]aminobenzyloxy]-2-methylquinoline bistrifluoroacetate], for which affinity at bradykinin β2 receptor was put at a Ki of 0.1 nM. Also, in assay [1], 350 nM corresponded to half-maximal inhibition (IC50).
On to `CCNC(=O)NCC(=O)N(C)c1ccc(OC)c(COc2cccc3ccc(C)nc23)c1C#N` [Example 9, N-[2-Cyano-4-methoxy-3-(2-methylquinolin-8-yloxymethyl)phenyl]-2-(3-ethylureido)-N-methylacetamide], for which affinity at bradykinin β2 receptor was put at a Ki of 6 nM.
On the same count and under the same terms, under `COc1c(N(C)C(=O)CNC(=O)/C=C/c2ccc(C(F)(F)F)cc2)ccc(SC)c1COc1cccc2ccc(C)nc12` [Example 16] stands 17.4 nM.
`COC(=O)CCCCC(=O)NCC(=O)N(C)c1ccc(OC)c(COc2cccc3ccc(C)nc23)c1SC` [Example 20, 8-[6-Methoxy-2-methylthio-3-(N-5-methoxycarbonylpentanoylglycyl-N-methyl)aminobenzyloxy]-2-methylquinoline] came in with a Ki at bradykinin β2 receptor of 5.4 nM. Further, in assay [1], the midpoint of inhibition, the IC50, lay at 56 nM.
In turn, `CSc1ccc(N(C)C(=O)CNC(=O)/C=C/c2ccc(NC(C)=O)nc2)c(SC)c1COc1cccc2ccc(C)nc12` [Example 24, 8-[2,6-Dithiomethyl-3-(3-(6-acetylaminopyridin-3-yl)acryloylglycyl-N-methyl)aminobenzyloxy]-2-methylquinoline] displayed a Ki on bradykinin β2 receptor of 1 nM.

For the origin of these results see patent publication US6211196A, “Benzyloxy-substituted, fused N-heterocycles, processes for their preparation, and their use as bradykinin receptor antagonists” (Aventis Pharma Deutschland GmbH, priority 1997, dated 2001).
